# According to PubChem BioAssay AID2060603 (Molecular Pharmacology Branch, DTP, NCI, 2025):
# Test system: 422866-222-R5-J1-PDC spheroid viability
# Test: Anticancer human tumor 422866-222-R5-J1-PDC patient-derived pancreatic adenocarcinoma cell line growth inhibition [CLK]
# Settings: spheroids with HUVEC and MSC; for IC50: curve of first compound; for viability, T/C: stronger effect = lower value
# Outline: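 Patient-derived tumor cells grown as complex spheroids with HUVEC endothelial cells and mesenchymal stem cells, treated with drug combinations. Concentrations descend in half-log steps from near clinical Cmax, or from 10 microM if Cmax unknown.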
# [1] = second compound 0.0316 µM, first compound 0.0316 µM
# [2] = second compound 0.0316 µM, first compound 0.1 µM
# [3] = second compound 0.0316 µM, first compound 0.316 µM
# [4] = second compound 0.0316 µM, first compound 1 µM
# [5] = second compound 0.0316 µM, first compound 3.16 µM
# [6] = second compound 0.0316 µM, first compound 10 µM
# [7] = second compound 0.1 µM, first compound 0.0316 µM
# [8] = second compound 0.1 µM, first compound 0.1 µM
# [9] = second compound 0.1 µM, first compound 0.316 µM
# [10] = second compound 0.1 µM, first compound 1 µM
# [11] = second compound 0.1 µM, first compound 3.16 µM
# [12] = second compound 0.1 µM, first compound 10 µM
# [13] = second compound 0.316 µM, first compound 0.0316 µM
# [14] = second compound 0.316 µM, first compound 0.1 µM
# [15] = second compound 0.316 µM, first compound 0.316 µM
# [16] = second compound 0.316 µM, first compound 1 µM
# [17] = second compound 0.316 µM, first compound 3.16 µM
# [18] = second compound 0.316 µM, first compound 10 µM
# [19] = second compound 1 µM, first compound 0.0316 µM
# [20] = second compound 1 µM, first compound 0.1 µM
# [21] = second compound 1 µM, first compound 0.316 µM
# [22] = second compound 1 µM, first compound 1 µM
# [23] = second compound 1 µM, first compound 3.16 µM
# [24] = second compound 1 µM, first compound 10 µM
# [25] = second compound 3.16 µM, first compound 0.0316 µM
# [26] = second compound 3.16 µM, first compound 0.1 µM
# [27] = second compound 3.16 µM, first compound 0.316 µM
# [28] = second compound 3.16 µM, first compound 1 µM
# [29] = second compound 3.16 µM, first compound 3.16 µM
# [30] = second compound 3.16 µM, first compound 10 µM
# [31] = second compound 10 µM, first compound 0.0316 µM
# [32] = second compound 10 µM, first compound 0.1 µM
# [33] = second compound 10 µM, first compound 0.316 µM
# [34] = second compound 10 µM, first compound 1 µM
# [35] = second compound 10 µM, first compound 3.16 µM
# [36] = second compound 10 µM, first compound 10 µM
# 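Also: spheroids exposed to agents for seven days before readout.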
compound,measurement,setting,value
C#Cc1c(F)ccc2cc(O)cc(-c3ncc4c(N5CC6CCC(C5)N6)nc(OCC56CCCN5CC(F)C6)nc4c3F)c12 (stereo not drawn) + CNC(=O)c1ccc(Nc2nc(OC3CCCC3)c3c(-c4ccc5nc(C)oc5c4)c[nH]c3n2)c(OC)c1,IC50,second compound 0.0316 µM,1070 nM
same,IC50,second compound 0.1 µM,735 nM
same,IC50,second compound 0.316 µM,298 nM
same,IC50,second compound 1 µM,223 nM
same,IC50,second compound 3.16 µM,181 nM
same,IC50,second compound 10 µM,202 nM
same,"viability, T/C",[1],102%
same,"viability, T/C",[2],93.5%
same,"viability, T/C",[3],70.8%
same,"viability, T/C",[4],53.7%
same,"viability, T/C",[5],32.1%
same,"viability, T/C",[6],26.1%
same,"viability, T/C",[7],81.5%
same,"viability, T/C",[8],67.9%
same,"viability, T/C",[9],61.9%
same,"viability, T/C",[10],46.3%
same,"viability, T/C",[11],33.9%
same,"viability, T/C",[12],25.6%
same,"viability, T/C",[13],71.7%
same,"viability, T/C",[14],60.8%
same,"viability, T/C",[15],47.2%
same,"viability, T/C",[16],41.6%
same,"viability, T/C",[17],33.8%
same,"viability, T/C",[18],26.8%
same,"viability, T/C",[19],58.5%
same,"viability, T/C",[20],58.7%
same,"viability, T/C",[21],45.1%
same,"viability, T/C",[22],37.3%
same,"viability, T/C",[23],28.5%
same,"viability, T/C",[24],24.6%
same,"viability, T/C",[25],62.7%
same,"viability, T/C",[26],51.9%
same,"viability, T/C",[27],49.6%
same,"viability, T/C",[28],32.8%
same,"viability, T/C",[29],39.4%
same,"viability, T/C",[30],24%
same,"viability, T/C",[31],64.9%
same,"viability, T/C",[32],50.5%
same,"viability, T/C",[33],46.4%
same,"viability, T/C",[34],42.5%
same,"viability, T/C",[35],30.5%
same,"viability, T/C",[36],21.9%
CC(CO)NC(=O)c1cc(-c2ccc(Cl)cc2)nn(-c2cnn(C)c2)c1=O (stereo not drawn) + CNC(=O)c1ccc(Nc2nc(OC3CCCC3)c3c(-c4ccc5nc(C)oc5c4)c[nH]c3n2)c(OC)c1,IC50,second compound 0.0316 µM,> 10000 nM
same,IC50,second compound 0.1 µM,> 10000 nM
same,IC50,second compound 0.316 µM,> 10000 nM
same,IC50,second compound 1 µM,> 10000 nM
same,IC50,second compound 3.16 µM,> 10000 nM
same,IC50,second compound 10 µM,> 10000 nM
same,"viability, T/C",[1],91%
same,"viability, T/C",[2],112%
same,"viability, T/C",[3],112%
same,"viability, T/C",[4],114%
same,"viability, T/C",[5],77.2%
same,"viability, T/C",[6],81.7%
same,"viability, T/C",[7],113%
same,"viability, T/C",[8],97.3%
same,"viability, T/C",[9],109%
same,"viability, T/C",[10],98.9%
same,"viability, T/C",[11],74.9%
same,"viability, T/C",[12],78.1%
same,"viability, T/C",[13],73.2%
same,"viability, T/C",[14],73.8%
same,"viability, T/C",[15],72.6%
same,"viability, T/C",[16],73.5%
same,"viability, T/C",[17],72.2%
same,"viability, T/C",[18],66.8%
same,"viability, T/C",[19],74.8%
same,"viability, T/C",[20],64.2%
same,"viability, T/C",[21],66.2%
same,"viability, T/C",[22],55.1%
same,"viability, T/C",[23],57.5%
same,"viability, T/C",[24],61.8%
same,"viability, T/C",[25],56.3%
same,"viability, T/C",[26],60.8%
same,"viability, T/C",[27],57.2%
same,"viability, T/C",[28],61.8%
same,"viability, T/C",[29],51.5%
same,"viability, T/C",[30],50.2%
same,"viability, T/C",[31],55.6%
same,"viability, T/C",[32],63.4%
same,"viability, T/C",[33],67%
same,"viability, T/C",[34],60.4%
same,"viability, T/C",[35],60.9%
same,"viability, T/C",[36],56.4%
CC(Nc1ccc2c(c1)OCCn1cc(N3C(=O)OCC3C(F)F)nc1-2)C(N)=O (stereo not drawn) + CNC(=O)c1ccc(Nc2nc(OC3CCCC3)c3c(-c4ccc5nc(C)oc5c4)c[nH]c3n2)c(OC)c1,IC50,second compound 0.0316 µM,144 nM
same,IC50,second compound 0.1 µM,175 nM
same,IC50,second compound 0.316 µM,86 nM
same,IC50,second compound 1 µM,48.5 nM
same,IC50,second compound 3.16 µM,32 nM
same,IC50,second compound 10 µM,62.6 nM
same,"viability, T/C",[1],80.2%
same,"viability, T/C",[2],52.4%
same,"viability, T/C",[3],42.6%
same,"viability, T/C",[4],35.1%
same,"viability, T/C",[5],30.1%
same,"viability, T/C",[6],28.7%
same,"viability, T/C",[7],83.7%
same,"viability, T/C",[8],56.9%
same,"viability, T/C",[9],43.8%
same,"viability, T/C",[10],32.8%
same,"viability, T/C",[11],25.6%
same,"viability, T/C",[12],31.9%
same,"viability, T/C",[13],56.3%
same,"viability, T/C",[14],49.1%
same,"viability, T/C",[15],37%
same,"viability, T/C",[16],28.1%
same,"viability, T/C",[17],29.2%
same,"viability, T/C",[18],24.2%
same,"viability, T/C",[19],56.2%
same,"viability, T/C",[20],37.6%
same,"viability, T/C",[21],37.7%
same,"viability, T/C",[22],31%
same,"viability, T/C",[23],26.2%
same,"viability, T/C",[24],24.9%
same,"viability, T/C",[25],50.2%
same,"viability, T/C",[26],41.2%
same,"viability, T/C",[27],37.5%
same,"viability, T/C",[28],29.4%
same,"viability, T/C",[29],28.8%
same,"viability, T/C",[30],25.3%
same,"viability, T/C",[31],58.9%
same,"viability, T/C",[32],43%
same,"viability, T/C",[33],36.7%
same,"viability, T/C",[34],31.9%
same,"viability, T/C",[35],33.1%
same,"viability, T/C",[36],25.8%
COc1c(OCCCN2CCOCC2)ccc2c3n(c(=NC(=O)c4cnc(N)nc4)nc12)CCN3 + CNC(=O)c1ccc(Nc2nc(OC3CCCC3)c3c(-c4ccc5nc(C)oc5c4)c[nH]c3n2)c(OC)c1,IC50,second compound 0.0316 µM,11.9 nM
same,IC50,second compound 0.1 µM,16.8 nM
same,IC50,second compound 0.316 µM,11.8 nM
same,IC50,second compound 1 µM,< 3.16 nM
same,IC50,second compound 3.16 µM,8.5 nM
same,IC50,second compound 10 µM,< 3.16 nM
same,"viability, T/C","second compound 0.0316 µM, first compound 0.00316 µM",83.3%
same,"viability, T/C","second compound 0.0316 µM, first compound 0.01 µM",51.5%
same,"viability, T/C",[1],39.9%
same,"viability, T/C",[2],26.8%
same,"viability, T/C",[3],28.4%
same,"viability, T/C",[4],30.3%
same,"viability, T/C","second compound 0.1 µM, first compound 0.00316 µM",72.2%
same,"viability, T/C","second compound 0.1 µM, first compound 0.01 µM",60%
same,"viability, T/C",[7],37.7%
same,"viability, T/C",[8],32.1%
same,"viability, T/C",[9],26.7%
same,"viability, T/C",[10],33.4%
same,"viability, T/C","second compound 0.316 µM, first compound 0.00316 µM",62.8%
same,"viability, T/C","second compound 0.316 µM, first compound 0.01 µM",53.6%
same,"viability, T/C",[13],29.5%
same,"viability, T/C",[14],23.9%
same,"viability, T/C",[15],25.7%
same,"viability, T/C",[16],32.9%
same,"viability, T/C","second compound 1 µM, first compound 0.00316 µM",50.1%
same,"viability, T/C","second compound 1 µM, first compound 0.01 µM",47.1%
same,"viability, T/C",[19],33.5%
same,"viability, T/C",[20],27.6%
same,"viability, T/C",[21],25.9%
same,"viability, T/C",[22],36.8%
same,"viability, T/C","second compound 3.16 µM, first compound 0.00316 µM",57.6%
same,"viability, T/C","second compound 3.16 µM, first compound 0.01 µM",48.7%
same,"viability, T/C",[25],31.9%
same,"viability, T/C",[26],25.4%
same,"viability, T/C",[27],28.6%
same,"viability, T/C",[28],36.1%
same,"viability, T/C","second compound 10 µM, first compound 0.00316 µM",47.2%
same,"viability, T/C","second compound 10 µM, first compound 0.01 µM",43.3%
same,"viability, T/C",[31],35.5%
same,"viability, T/C",[32],28%
same,"viability, T/C",[33],33.5%
same,"viability, T/C",[34],36.1%
